Source: US11116774B2, “Modulators of toll-like receptors for the treatment of HIV” (Gilead Sciences, Inc., priority 2014, dated 2021)
Several values for one entry are separate records, joined by “and”; a condition that tells them apart may be missing. Equal entries are not always repeated.

Assays:
proviral SIV DNA = assay: Proviral SIV DNA in PBMCs, lymph node and colon by qPCR (Example 205); type: in vivo, rhesus macaques
Description: A whole blood sample, an inguinal lymph node sample, and a colon pinch biopsy sample were taken from the animals dosed with the compound of Example 4 and from the animals dosed with the vehicle of Example 201 (placebo group) in the study described in Example 204. These samples were taken prior to initiation of dosing and two weeks after the last dose; all samples were taken while animals were on cART. Total DNA was isolated from each sample using commercially available blood and tissue DNA extraction kits. Proviral SIV DNA levels were measured by quantitative PCR (qPCR) using probe-primer sets specific to the SIV gag gene and normalization for cellular input by measuring the glyceraldehyde 3-phosphate dehydrogenase (GAPDH) gene levels. […] In one of the compound treated animals (166-08), there was only a noted decrease in the proviral DNA content in the PBMCs, a minor increase in lymph node, and a minor decrease in the colon. In the vehicle-dosed placebo control animals, however, there were slight to moderate increases in two of three animals in proviral SIV DNA in the PBMC and colon samples, and relatively stable levels in lymph node samples.

[1] = tested on: peripheral NK cells (CD3-CD8+ NKG2A+CD16+CD56+); assay: Peripheral lymphocyte activation, CD69 by flow cytometry: NK cells (Example 206); type: in vivo, rhesus macaque
Description: During the course of treatment with the compound of Example 4 as described in Example 204, peripheral lymphocyte activation was monitored in the groups dosed with the compound of Example 4 or the dosing vehicle of Example 201 (placebo), by measuring the expression of the early activation marker CD69 on various lymphocyte subsets by flow cytometry methodology. This methodology was used to quantify the percentage of immune cell subsets expressing the early activation marker. Standard data acquisition techniques were employed on a flow cytometer and by the use of antibodies conjugated to fluorescent molecules where the antibodies recognize rhesus macaque cell surface proteins on various immune cell subsets. In animals dosed with the compound of Example 4, whole blood samples were collected for each dose at various time points both at pre- and post-administration of compound. Total PBMCs were stained in the whole blood samples using antibodies that were chosen to be reactive to rhesus CD3, CD4, CD8, NKG2A, CD16 and CD56, each conjugated to different fluorescent probes to delineate CD3+CD4+CD8− lymphocytes, CD3+CD4−CD8+ lymphocytes and CD3-CD8+ NKG2A+CD16+ CD56+ NK cells. The flow cytometry data presented herein are from animals treated with the compound of Example 4.

[2] = tested on: simian immunodeficiency virus (SIV); assay: TLR7 modulating compound in SIV+ viremic rhesus at chronic set point: plasma viral load by quantitative RT-PCR (Example 203); type: in vivo, rhesus macaques
Procedure: Five chronically infected, SIV^+ rhesus macaques were either treated with the compound of Example 4 (n=3 animals) or with dosing vehicle (placebo, n=2 animals) in a multiple-dose, dose escalation, placebo controlled study. […] The animals were not administered combination antiretroviral therapy during any part of the study.
The animals were dosed once weekly by oral gavage (via nasogastric tube) with either the compound of Example 4 or placebo. Three animals were administered the compound of Example 4, prepared as described in Example 201. The first week, 1 mL/kg of the 0.1 mg/mL formulation was administered, corresponding to a dose of 0.1 mg/kg. The second week, 1 mL/kg of the 0.2 mg/mL formulation was administered, corresponding to a dose of 0.2 mg/kg. On weeks three through five, 1 mL/kg of the 0.3 mg/mL formulation was administered, corresponding to a dose of 0.3 mg/kg. Each week, two animals (placebo group) were administered the dosing vehicle as described in Example 201 at 1 mL/kg.
Each formulation of Example 201 or dosing vehicle only (placebo) was used fresh and thawed to room temperature prior to dosing. Plasma viral loads (expressed as SIV RNA copies per mL of plasma) were determined by quantitative RT-PCR of the SIV RNA measuring the gag gene transcripts at various times throughout the study for animals administered the compound of Example 4 and the placebo animals. […]

CCCCOc1nc(N)c2c(n1)N(Cc1ccc(CN3CCCC3)cc1)CC(=O)N2 [Example 4]
Proviral SIV DNA, PBMC, Pre (proviral SIV DNA; SIV+ rhesus on cART, prior to initiation of dosing, one line per animal): 150 copies/10^6 cells and 68 copies/10^6 cells and 160 copies/10^6 cells and 120 copies/10^6 cells | Proviral SIV DNA, PBMC, Post (proviral SIV DNA; SIV+ rhesus on cART, two weeks after the last dose, one line per animal): 100 copies/10^6 cells and 34 copies/10^6 cells and 89 copies/10^6 cells and 3 copies/10^6 cells | Proviral SIV DNA, Colon, Pre (proviral SIV DNA; colon pinch biopsy, on cART, prior to initiation of dosing, one line per animal): 230 copies/10^6 cells and 80 copies/10^6 cells and 150 copies/10^6 cells and 110 copies/10^6 cells | Proviral SIV DNA, Colon, Post (proviral SIV DNA; colon pinch biopsy, on cART, two weeks after the last dose, one line per animal): 210 copies/10^6 cells and 3 copies/10^6 cells (3×) | Proviral SIV DNA, Lymph node, Pre (proviral SIV DNA; inguinal lymph node, on cART, prior to initiation of dosing, one line per animal): 270 copies/10^6 cells and 31 copies/10^6 cells and 210 copies/10^6 cells and 130 copies/10^6 cells | Proviral SIV DNA, Lymph node, Post (proviral SIV DNA; inguinal lymph node, on cART, two weeks after the last dose, one line per animal): 280 copies/10^6 cells and 3 copies/10^6 cells (2×) and 84 copies/10^6 cells | change of proviral SIV DNA, pre- vs post-treatment, across PBMC, inguinal lymph node and colon (proviral SIV DNA; within each animal, on cART): clear decrease in proviral DNA content for three of four animals | mean maximum percent change in CD69 expression on NK cells ([1]; dose 0.1 mg/kg, any time point (rise by 24 to 72 hours post-dose), pre-dose range 89-95%): 6.5% | mean maximum percent change in CD69 expression on NK cells ([1]; dose 0.2 mg/kg, pre-dose range 83-95%): 9.5% | mean maximum percent change in CD69 expression on NK cells ([1]; first dose of 0.3 mg/kg, pre-dose range 84-95%): 8.3% | mean maximum percent change in CD69 expression on NK cells ([1]; second dose of 0.3 mg/kg, pre-dose range 82-97%): 8.7% | plasma viral load ([2]; animal with the lowest chronic set point, undetectable for at least 100 days following the last dose (FIG. 1)): < 50 RNA copies/mL | sustained decrease in viral load set point compared to pre-dose ([2]; second animal, log10 RNA copies, maintained at least 100 days following the last dose (FIG. 2)): approximately 1 log order
